These results are taken from patent publication US8785462B2, “5-hydroxypyrimidine-4-carboxamide derivative” (Daiichi Sankyo Company, Limited, priority 2009, dated 2014).

For orientation: fold induction means the ratio of treated to control signal. Lower therefore signals a weak induction.

In the test the test system is human liver cancer-derived cell line Hep3B. Put plainly: In vitro erythropoietin (EPO) induction activity in Hep3B cells (human EPO ELISA of culture supernatant). The class given is cell-based. The settings on record: test compound 12.5 μM, Hep3B cells cultured 24 hours at 37° C., multiple of the EPO concentration in the control (0.5% DMSO = 1). Here is the method:
In vitro erythropoietin (EPO) induction activity of test compounds was evaluated using human liver cancer-derived cell line Hep3B (ATCC, Manassas, Va.). Hep3B cells were cultured overnight at 37° C. in Dulbecco's modified Eagle's medium (DMEM) in the presence of 10% fetal bovine serum (FBS) (24-well plate, 1.0×10^5 cells/well). After replacing with fresh DMEM (+10% FBS) containing a test compound dissolved in 0.5% dimethyl sulfoxide (DMSO) (prepared to a concentration of 12.5 μM) or a solvent control (0.5% DMSO), the cells were cultured for 24 hours at 37° C. After recovering the culture supernatant, EPO concentration in the culture supernatant was quantified using a human EPO ELISA kit (StemCell Technologies).
The EPO concentration in the case of using a compound of each example as a test compound was expressed as a multiple of the EPO concentration in the control.
In general terms: In an ELISA, binding on a coated surface is turned into a signal by an enzyme label.
In turn, `CC[C@H](O)Cc1ccc(-c2ccc(N3CCC(Cc4nc(C)c(O)c(C(=O)NCC(=O)O)n4)CC3)cc2)cc1` [Example 47, [({5-Hydroxy-2-[(1-{4′-[(2S)-2-hydroxybutyl]biphenyl-4-yl}piperidin-4-yl)methyl]-6-methylpyrimidin-4-yl}carbonyl)amino]acetic acid] returned a fold induction at 12.5 µM of 34.

`CC[C@@H](O)Cc1ccc(-c2ccc(N3CCC(Cc4nc(C)c(O)c(C(=O)NCC(=O)O)n4)CC3)cc2)cc1` [Example 48, [({5-Hydroxy-2-[(1-{4′-[(2R)-2-hydroxybutyl]biphenyl-4-yl}piperidin-4-yl)methyl]-6-methylpyrimidin-4-yl}carbonyl)amino]acetic acid] had a fold induction at 12.5 µM of 42.

As to `COC[C@H](O)Cc1ccc(-c2ccc(N3CCC(Cc4nc(C)c(O)c(C(=O)NCC(=O)O)n4)CC3)cc2)cc1` [Example 49, [({5-Hydroxy-2-[(1-{4′-[(2R)-2-hydroxy-3-methoxypropyl]biphenyl-4-yl}piperidin-4-yl)methyl]-6-methylpyrimidin-4-yl}carbonyl)amino]acetic acid], the fold induction at 12.5 µM is 18.

Turning to `COC[C@@H](O)Cc1ccc(-c2ccc(N3CCC(Cc4nc(C)c(O)c(C(=O)NCC(=O)O)n4)CC3)cc2)cc1` [Example 50, [({5-Hydroxy-2-[(1-{4′-[(2S)-2-hydroxy-3-methoxypropyl]biphenyl-4-yl}piperidin-4-yl)methyl]-6-methylpyrimidin-4-yl}carbonyl)amino]acetic acid], the fold induction at 12.5 µM is 23.
